Tested on: cats
Details: in vivo
Experimental: Necropsies were performed in cage order. All animals were euthanized on Day 38 by intramuscular sedation with ketamine followed approximately 30 min later in a different room by an intravenous overdose of sodium pentobarbital solution and exsanguination, under procedures approved by a veterinary pathologist and according to the study site’s standard operating procedures. After a complete post-mortem evaluation, tissue samples were collected for histopathological analysis. Additionally, the following organs were weighed before tissues were collected: adrenal gland, aorta, brain, epididymis, heart, kidney, liver, lung with bronchi, ovary, pituitary, prostate, salivary gland (mandibular), spleen, testis, thymus, thyroid gland (with parathyroid), and uterus with cervix. In order to correct for body weight and size, the ratio of organ weight to body weight and brain weight was calculated for each animal. Tissues, including any gross lesions identified during the necropsy, were fixed in neutral buffered formalin, except the eye including optic nerve and testes were fixed using a modified Davidson’s fixative [36]. Tissue sections were stained with hematoxylin and eosin and evaluated by a board-certified veterinary pathologist. A bone marrow smear was collected from a rib at necropsy and analyzed qualitatively by a board-certified veterinary clinical pathologist.

**Q.** With CCc1ccc(Nc2c(F)c(F)cc(F)c2F)c(CC(=O)O)c1 [robenacoxib] as the compound, how does the Robenacoxib-related microscopic findings read?
**A.** Its Robenacoxib-related microscopic findings is “increased injection site subacute/chronic inflammation”.

**Q.** What about the “absolute liver weight increase compared to control” value of the same compound?
**A.** Its value is 14%.

**Q.** What about the “severity of injection site inflammation observations” value of the same compound?
**A.** Its value is “minimal”.
